Assay [1] addresses T1, bovine mincle CRD (Bos taurus, UniProt E1BHM0, I174T).
T1 construct: gene CLEC4E; C-type carbohydrate recognition domain, residues 78-211
T1 sequence (E1BHM0 78-211 I174T): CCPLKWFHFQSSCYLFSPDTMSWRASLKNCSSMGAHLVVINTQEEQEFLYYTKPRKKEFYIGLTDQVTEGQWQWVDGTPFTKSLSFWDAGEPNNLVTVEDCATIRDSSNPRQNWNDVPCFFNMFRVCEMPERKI
In words: competition with […]-Man31-BSA on immobilized biotin-tagged CRD. It is filed as binding. Conditions: pH 7.8, 1.5 M NaCl, 2.5 mM CaCl2, 4 °C.

Assay [2] concerns the target T1, bovine mincle CRD. The assay is described as above. It is filed as binding.
[3] abbreviates: reported as KI(trehalose)/KI(acyltrehalose) ratio.

`CCCC(=O)OC[C@H]1O[C@H](O[C@H]2O[C@H](CO)[C@@H](O)[C@H](O)[C@H]2O)[C@H](O)[C@@H](O)[C@@H]1O` [mono-n-butanoyl derivative of trehalose]: the KI entry on bovine mincle CRD [1] (setting [3]) was “the mono-n-butanoyl derivative showed enhanced affinity compared with trehalose”.
At bovine mincle CRD [2], `CCCCCCCC(=O)OC[C@H]1O[C@H](O[C@H]2O[C@H](CO)[C@@H](O)[C@H](O)[C@H]2O)[C@H](O)[C@@H](O)[C@@H]1O` [mono-octanoyl trehalose] returned a Ki of 58 ± 8 µM.
Take `CC(=O)OC[C@H]1O[C@H](O[C@H]2O[C@H](COC(C)=O)[C@@H](O)[C@H](O)[C@H]2O)[C@H](O)[C@@H](O)[C@@H]1O` [trehalose acetylated at the two 6-OH groups]: the KI entry at bovine mincle CRD [1] (setting [3]) is given as “acetylation at the two 6-OH groups is tolerated”.
For the compound `CO[C@H]1O[C@H](CO)[C@@H](O)[C@H](O)[C@H]1O` [α-methyl glucoside], the KI result at bovine mincle CRD [1] is “The mean ratio of KI values for α-methyl glucoside and trehalose”.

For orientation: Ki means the equilibrium dissociation constant of an inhibitor or competing ligand from its target. A high value points to a looser hold on the target.

These data come from PMC3789947, “Mechanism for Recognition of an Unusual Mycobacterial Glycolipid by the Macrophage Receptor Mincle” (The Journal of Biological Chemistry, 2013).
